Patent publication US20250082700A1, “METHODS AND COMPOSITIONS OF TREATING BIOLFILM-RELATED DISEASES” (UNIVERSITY OF ROCHESTER, priority 2022, published 2025)
Ends that are not written are not given here.

Experiments:
[1] = tested on: S. mutans from 1 representative S-ECC child; experiment: Inhibition of S. mutans clinical isolate by plantaricin (MIC); format: cell-based, Streptococcus mutans; conditions: clear culture plated, additional 48 hours
Procedure: (§1) Bacteriocins, antimicrobial molecules, produced by L. plantarum are known as plantaricins. Peptide plantaricin-149 (acetate) powers (Creative Peptides, Shirley, USA) were dissolved in ddH2O to prepare plantaricin solutions. S. mutans (3.6×10^3 CFU/ml) and C. albicans (3.1×10^1 CFU/ml) from 1 representative S-ECC child were selected and treated with the plantaricin with a range of concentration (0-400 μg/ml). The mixtures of plantaricin with S. mutans or C. albicans were grown for 24 hours in TSBYE with 1% glucose in 96-well plates. Clear culture after 24 hours' incubation indicated no growth of microorganisms. Therefore, the minimal inhibition concentration (MIC) of plantaricin-149 was defined as the lowest concentration that inhibited the growth of S. mutans and C. albicans.
(§2) S. mutans (3.6×10^3 CFU/ml) and C. albicans (3.1×10^1 CFU/ml) were treated by the plantaricin ranging from 0-400 ng/ml respectively, and grew for 24 h in 1% glucose condition. The MIC of plantaricin was 400 ng/ml for S. mutans and 200 ng/ml for C. albicans. The clear culture was plated and incubated for additional 48 hours.

[2] = tested on: C. albicans from 1 representative S-ECC child; experiment: Inhibition of C. albicans clinical isolate by plantaricin (MIC); format: cell-based, Candida albicans; conditions: clear culture plated, additional 48 hours
Procedure: as §1, §2

YSLQMGATAIKQVKKLFKKKGG [plantaricin]
nature of inhibitory effect on S. mutans [1]: bacteriostatic
nature of inhibitory effect on C. albicans [2]: fungistatic
